Data published in patent US20240109917A1 (ACTELION PHARMACEUTICALS LTD, priority 2020, published 2024).

Legend:
[1] = biological target: Tb-labeled inactive PDGFRβ (Homo sapiens (Human), UniProt P09619); assay: PDGFRβ LanthaScreen Assay; type: binding; settings: read-out: PDGFR Lantha IC50
VEGFR2, unphosphorylated = VEGFR2, unphosphorylated (Homo sapiens (Human), UniProt P35968); assay: VEGFR ADP GLO Assay; type: biochemical
PDGFRβ = PDGFRβ (Rattus norvegicus (Rat), UniProt Q05030); assay: PDGFRβ Cellular Assay (PDGFRb P-Y751 HTRF in A10 cells stimulated with PDGF-BB); type: cell-based; settings: read-out: PDGFR Cellular IC50
Sequence of PDGFRβ (Q05030 32-1097): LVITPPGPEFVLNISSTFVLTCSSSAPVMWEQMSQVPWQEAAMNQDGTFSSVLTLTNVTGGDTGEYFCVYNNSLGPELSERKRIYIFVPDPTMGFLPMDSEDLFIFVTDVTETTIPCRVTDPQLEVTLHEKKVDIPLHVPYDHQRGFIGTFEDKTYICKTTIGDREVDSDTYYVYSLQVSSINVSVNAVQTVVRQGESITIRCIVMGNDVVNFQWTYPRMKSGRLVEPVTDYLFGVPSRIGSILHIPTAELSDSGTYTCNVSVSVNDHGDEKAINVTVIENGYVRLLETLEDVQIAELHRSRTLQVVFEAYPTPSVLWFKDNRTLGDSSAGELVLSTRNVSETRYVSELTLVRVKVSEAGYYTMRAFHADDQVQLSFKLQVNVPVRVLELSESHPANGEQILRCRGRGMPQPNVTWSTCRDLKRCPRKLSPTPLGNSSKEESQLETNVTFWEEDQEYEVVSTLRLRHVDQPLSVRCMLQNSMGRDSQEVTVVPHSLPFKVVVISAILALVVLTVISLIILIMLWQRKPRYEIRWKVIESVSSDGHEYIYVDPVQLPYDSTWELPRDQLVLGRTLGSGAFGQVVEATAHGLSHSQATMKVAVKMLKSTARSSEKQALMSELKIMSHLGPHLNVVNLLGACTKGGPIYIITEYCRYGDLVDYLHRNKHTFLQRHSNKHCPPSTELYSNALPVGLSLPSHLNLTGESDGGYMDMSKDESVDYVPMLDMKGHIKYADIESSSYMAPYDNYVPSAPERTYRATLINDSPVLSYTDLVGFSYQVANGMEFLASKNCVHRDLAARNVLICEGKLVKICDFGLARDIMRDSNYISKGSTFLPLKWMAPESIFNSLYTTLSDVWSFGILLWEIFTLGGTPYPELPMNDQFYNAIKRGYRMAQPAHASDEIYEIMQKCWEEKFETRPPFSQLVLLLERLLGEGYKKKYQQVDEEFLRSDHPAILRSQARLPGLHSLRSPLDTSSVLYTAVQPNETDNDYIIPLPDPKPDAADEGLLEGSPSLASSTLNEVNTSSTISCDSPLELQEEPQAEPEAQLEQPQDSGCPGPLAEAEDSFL
How it was run: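 Rat A10 cells, plated overnight, were treated with compound for 3 hours, then stimulated with PDGF-BB (working stock 100 ng/mL in 10% FBS medium). After lysis, PDGFRβ P-Y751 was detected by HTRF.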

Sequence of VEGFR2, unphosphorylated (P35968 20-1356): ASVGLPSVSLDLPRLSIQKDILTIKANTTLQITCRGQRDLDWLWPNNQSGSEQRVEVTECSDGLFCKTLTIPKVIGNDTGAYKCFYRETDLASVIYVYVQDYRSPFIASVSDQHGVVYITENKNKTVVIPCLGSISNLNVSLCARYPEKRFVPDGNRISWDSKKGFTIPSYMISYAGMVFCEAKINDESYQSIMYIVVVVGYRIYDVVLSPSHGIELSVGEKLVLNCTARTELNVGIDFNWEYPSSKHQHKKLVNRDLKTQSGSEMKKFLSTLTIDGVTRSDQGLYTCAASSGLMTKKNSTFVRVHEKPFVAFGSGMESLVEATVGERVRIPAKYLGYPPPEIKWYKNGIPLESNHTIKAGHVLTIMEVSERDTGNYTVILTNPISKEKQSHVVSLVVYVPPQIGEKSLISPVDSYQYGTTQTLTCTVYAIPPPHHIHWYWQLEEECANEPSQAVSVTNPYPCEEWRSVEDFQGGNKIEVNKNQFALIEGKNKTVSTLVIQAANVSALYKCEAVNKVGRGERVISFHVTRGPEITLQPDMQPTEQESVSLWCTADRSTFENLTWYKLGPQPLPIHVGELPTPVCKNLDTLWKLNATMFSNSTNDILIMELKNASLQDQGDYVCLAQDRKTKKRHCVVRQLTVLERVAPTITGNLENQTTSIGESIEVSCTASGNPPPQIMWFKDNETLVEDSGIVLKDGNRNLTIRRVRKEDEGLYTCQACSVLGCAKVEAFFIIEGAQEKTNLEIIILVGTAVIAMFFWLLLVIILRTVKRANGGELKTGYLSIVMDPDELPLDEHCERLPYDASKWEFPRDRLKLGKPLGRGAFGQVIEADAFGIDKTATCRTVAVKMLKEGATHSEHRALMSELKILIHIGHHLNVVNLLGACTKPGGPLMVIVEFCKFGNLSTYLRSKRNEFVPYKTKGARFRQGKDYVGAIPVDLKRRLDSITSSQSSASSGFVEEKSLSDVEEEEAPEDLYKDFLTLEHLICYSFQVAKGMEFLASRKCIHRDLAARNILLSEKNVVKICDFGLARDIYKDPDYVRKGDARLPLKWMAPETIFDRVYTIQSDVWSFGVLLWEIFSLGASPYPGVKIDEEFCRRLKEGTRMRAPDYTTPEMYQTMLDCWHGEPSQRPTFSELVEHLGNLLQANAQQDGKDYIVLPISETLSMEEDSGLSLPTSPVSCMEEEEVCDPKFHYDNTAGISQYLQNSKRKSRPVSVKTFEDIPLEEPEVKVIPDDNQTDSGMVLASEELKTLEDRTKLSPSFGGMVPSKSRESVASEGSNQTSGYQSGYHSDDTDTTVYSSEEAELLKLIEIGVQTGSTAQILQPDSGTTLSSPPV
Sequence of Tb-labeled inactive PDGFRβ (P09619 33-1106): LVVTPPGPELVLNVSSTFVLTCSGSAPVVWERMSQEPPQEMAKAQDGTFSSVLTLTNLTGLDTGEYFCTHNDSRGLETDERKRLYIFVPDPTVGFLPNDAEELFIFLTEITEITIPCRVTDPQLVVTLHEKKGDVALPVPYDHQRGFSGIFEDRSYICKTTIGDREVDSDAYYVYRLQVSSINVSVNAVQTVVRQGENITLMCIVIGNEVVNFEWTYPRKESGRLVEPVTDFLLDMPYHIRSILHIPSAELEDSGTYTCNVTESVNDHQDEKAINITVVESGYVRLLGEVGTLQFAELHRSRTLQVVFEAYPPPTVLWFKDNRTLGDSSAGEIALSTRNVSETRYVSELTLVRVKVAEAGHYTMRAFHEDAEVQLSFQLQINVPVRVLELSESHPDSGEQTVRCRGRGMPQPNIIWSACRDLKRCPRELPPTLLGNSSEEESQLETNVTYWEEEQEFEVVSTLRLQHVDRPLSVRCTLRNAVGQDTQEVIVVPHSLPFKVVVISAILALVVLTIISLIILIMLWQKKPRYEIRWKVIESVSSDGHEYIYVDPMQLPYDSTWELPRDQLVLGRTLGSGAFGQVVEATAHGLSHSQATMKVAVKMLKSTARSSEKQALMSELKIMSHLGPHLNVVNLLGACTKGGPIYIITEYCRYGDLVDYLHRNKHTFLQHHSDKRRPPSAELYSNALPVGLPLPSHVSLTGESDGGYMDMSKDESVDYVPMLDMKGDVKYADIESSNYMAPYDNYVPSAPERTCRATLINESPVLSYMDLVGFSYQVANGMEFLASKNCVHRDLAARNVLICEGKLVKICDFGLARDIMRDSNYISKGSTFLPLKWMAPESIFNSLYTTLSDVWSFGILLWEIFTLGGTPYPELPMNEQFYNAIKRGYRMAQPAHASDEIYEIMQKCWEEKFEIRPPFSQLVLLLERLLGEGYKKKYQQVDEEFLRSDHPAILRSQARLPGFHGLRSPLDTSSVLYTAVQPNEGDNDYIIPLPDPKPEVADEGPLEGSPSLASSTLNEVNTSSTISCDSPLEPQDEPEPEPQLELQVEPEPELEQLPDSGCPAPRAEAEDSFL

`Cc1ncc(C(=O)NCCN2CC3CCC2CC3)cc1NC(=O)c1cnn2cc(-c3cnn(CC(N)=O)c3)sc12` [Example 150, N-(5-((2-(2-azabicyclo[2.2.2]octan-2-yl)ethyl)carbamoyl)-2-methylpyridin-3-yl)-2-(1-(2-amino-2-oxoethyl)-1H-pyrazol-4-yl)pyrazolo[5,1-b]thiazole-7-carboxamide] gave an IC50 [1] of 5.5 nM, an IC50 (VEGFR2, unphosphorylated) of over 7500 nM and an IC50 (PDGFRβ) of over 2000 nM.

`Cc1ncc(C(=O)NCCN2CC(F)(F)C2)cc1NC(=O)c1cnn2cc(-c3ccncc3)sc12` [Example 152, N-(5-((2-(3,3-difluoroazetidin-1-yl)ethyl)carbamoyl)-2-methylpyridin-3-yl)-2-(pyridin-4-yl)pyrazolo[5,1-b]thiazole-7-carboxamide] showed an IC50 [1] of 12.4 nM, an IC50 (VEGFR2, unphosphorylated) of over 7500 nM and an IC50 (PDGFRβ) of 66.2 nM.

`Cc1ncc(C(=O)NCCN2CCC23CCC3)cc1NC(=O)c1cnn2cc(-c3cn(C)nc3C)sc12` [Example 175, N-(5-((2-(1-azaspiro[3.3]heptan-1-yl)ethyl)carbamoyl)-2-methylpyridin-3-yl)-2-(1,3-dimethyl-1H-pyrazol-4-yl)pyrazolo[5,1-b]thiazole-7-carboxamide] gave an IC50 [1] of 3.8 nM, an IC50 (VEGFR2, unphosphorylated) of over 7500 nM and an IC50 (PDGFRβ) of 16.6 nM.

With `CC(=O)Nc1cncc(-c2cn3ncc(C(=O)Nc4cc(C(=O)NCCN5CC6CCC5CC6)cnc4C)c3s2)c1` [Example 147, N-(5-((2-(2-azabicyclo[2.2.2]octan-2-yl)ethyl)carbamoyl)-2-methylpyridin-3-yl)-2-(5-acetamidopyridin-3-yl)pyrazolo[5,1-b]thiazole-7-carboxamide] the IC50 [1] was 6.9 nM, the IC50 (VEGFR2, unphosphorylated) was over 7500 nM and the IC50 (PDGFRβ) was over 2000 nM.

With `Cc1ncc(C(=O)NCCN2CC3CC(C3)C2)cc1NC(=O)c1cnn2cc(-c3cnn(C)c3)sc12` [Example 5, N-(5-((2-(3-azabicyclo[3.1.1]heptan-3-yl)ethyl)carbamoyl)-2-methylpyridin-3-yl)-2-(1-methyl-1H-pyrazol-4-yl)pyrazolo[5,1-b]thiazole-7-carboxamide] the IC50 [1] was 5.8 nM, the IC50 (VEGFR2, unphosphorylated) was over 7500 nM and the IC50 (PDGFRβ) was 26.2 nM.

In the case of `Cc1ncc(C(=O)NCCN2CC3CCC2CC3)cc1NC(=O)c1cnn2cc(-c3cnn(C4COC4)c3)sc12` [Example 144, N-(5-((2-(2-azabicyclo[2.2.2]octan-2-yl)ethyl)carbamoyl)-2-methylpyridin-3-yl)-2-(1-(oxetan-3-yl)-1H-pyrazol-4-yl)pyrazolo[5,1-b]thiazole-7-carboxamide], the IC50 [1] is reported as 3.6 nM, the IC50 (VEGFR2, unphosphorylated) is reported as over 7500 nM and the IC50 (PDGFRβ) is reported as 106 nM.

Compound `Cc1ncc(C(=O)NCCN2CC(F)(F)C2)cc1NC(=O)c1cnn2cc(-c3cnn(C)c3)sc12` [Example 125, N-(5-((2-(3,3-difluoroazetidin-1-yl)ethyl)carbamoyl)-2-methylpyridin-3-yl)-2-(1-methyl-1H-pyrazol-4-yl)pyrazolo[5,1-b]thiazole-7-carboxamide] has an IC50 [1] of 5.3 nM, an IC50 (VEGFR2, unphosphorylated) of over 7500 nM and an IC50 (PDGFRβ) of 47.6 nM.

`Cc1ncc(C(=O)NCCN2CC(C)(C)C2)cc1NC(=O)c1cnn2cc(-c3cnn(C)c3)sc12` [Example 126, N-(5-((2-(3,3-dimethylazetidin-1-yl)ethyl)carbamoyl)-2-methylpyridin-3-yl)-2-(1-methyl-1H-pyrazol-4-yl)pyrazolo[5,1-b]thiazole-7-carboxamide] showed an IC50 [1] of 10.3 nM, an IC50 (VEGFR2, unphosphorylated) of over 7500 nM and an IC50 (PDGFRβ) of 80.1 nM.

Work on `Cc1ncc(C(=O)NCCN2CCC3(CC3)C2)cc1NC(=O)c1cnn2cc(-c3cccnc3)sc12` [Example 159, N-(5-((2-(5-azaspiro[2.4]heptan-5-yl)ethyl)carbamoyl)-2-methylpyridin-3-yl)-2-(pyridin-3-yl)pyrazolo[5,1-b]thiazole-7-carboxamide] yielded an IC50 [1] of 21.6 nM, an IC50 (VEGFR2, unphosphorylated) of over 7500 nM and an IC50 (PDGFRβ) of 86.8 nM.

For `Cc1ncc(NC(=O)CCN2CCCC23CC3)cc1NC(=O)c1cnn2cc(-c3cnn(C)c3)sc12` [Example 98], the IC50 [1] was 2.9 nM, the IC50 (VEGFR2, unphosphorylated) was over 7500 nM and the IC50 (PDGFRβ) was 4.7 nM.

In the case of `Cc1ncc(NC(=O)CCN2CC(C)(C)C2)cc1NC(=O)c1cnn2cc(-c3cnn(C)c3)sc12` [Example 96, N-(5-(3-(3,3-dimethylazetidin-1-yl)propanamido)-2-methylpyridin-3-yl)-2-(1-methyl-1H-pyrazol-4-yl)pyrazolo[5,1-b]thiazole-7-carboxamide], the IC50 [1] is reported as 28.4 nM, the IC50 (VEGFR2, unphosphorylated) is reported as over 7500 nM and the IC50 (PDGFRβ) is reported as 17 nM.

Compound `Cc1ncc(NC(=O)NCCC2CCN(C)CC2)cc1NC(=O)c1cnn2cc(-c3cnn(C)c3)sc12` [Example 108, 2-(1-methyl-1H-pyrazol-4-yl)-N-(2-methyl-5-(3-(2-(1-methylpiperidin-4-yl)ethyl)ureido)pyridin-3-yl)pyrazolo[5,1-b]thiazole-7-carboxamide] has an IC50 [1] of 490 nM, an IC50 (VEGFR2, unphosphorylated) of over 2500 nM and an IC50 (PDGFRβ) of over 3000 nM.
